From patent publication US4444782A, “2(4-tert.-Butyl-2,6-dichlorophenyl-imino)imidazolidine and use as an anti-hypertension agent” (SmithKline Beckman Corporation, priority 1982, dated 1984)
Where a name gives a salt, the structure may show the parent alone. Read-outs that look alike come from different tables or passages of the source.

Experiments:
[1] = cited literature; cited from earlier work
[2] = molecular target: T1, alpha2 receptor (guinea pig atrium) (Cavia porcellus, UniProt Q60474); assay: isolated, superfused guinea pig left atrium (prejunctional alpha2 agonism)
T1 construct: isolated, superfused guinea pig left atrium; from tissue; host or cells: guinea pig left atrium (sympathetic nerve endings)
T1 sequence (Q60474 1-464): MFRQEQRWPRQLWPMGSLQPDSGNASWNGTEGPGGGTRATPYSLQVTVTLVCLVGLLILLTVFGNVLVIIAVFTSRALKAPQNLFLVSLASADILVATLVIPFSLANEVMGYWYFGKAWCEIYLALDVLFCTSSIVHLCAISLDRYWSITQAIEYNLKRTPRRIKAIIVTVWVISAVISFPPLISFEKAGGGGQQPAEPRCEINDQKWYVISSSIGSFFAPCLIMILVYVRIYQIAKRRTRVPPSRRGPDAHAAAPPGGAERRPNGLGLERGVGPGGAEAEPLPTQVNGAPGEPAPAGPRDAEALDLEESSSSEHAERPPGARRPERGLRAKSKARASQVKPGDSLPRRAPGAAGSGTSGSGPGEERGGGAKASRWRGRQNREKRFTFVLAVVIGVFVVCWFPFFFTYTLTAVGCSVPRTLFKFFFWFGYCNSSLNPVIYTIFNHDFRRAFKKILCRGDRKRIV
Source text: The second type of vascular alpha receptor site to be reported is located prejunctionally on sympathetic neurons and called alpha2 sites. The protocol employed for determining this activity is the isolated, superfused guinea pig left atrium described in the cited Hieble publication.

[3] = molecular target: T2, alpha3 (vascular postjunctional alpha2) receptor, dog saphenous vein (Canis lupus familiaris, UniProt A0A8I3Q7S8); settings: for relative potency, alpha3: dog saphenous vein, clonidine versus the compound of this invention
T2 construct: the saphenous vein is located and cleaned of connective tissue; from tissue; host or cells: saphenous vein rings of mongrel dogs
T2 sequence (A0A8I3Q7S8 1-427): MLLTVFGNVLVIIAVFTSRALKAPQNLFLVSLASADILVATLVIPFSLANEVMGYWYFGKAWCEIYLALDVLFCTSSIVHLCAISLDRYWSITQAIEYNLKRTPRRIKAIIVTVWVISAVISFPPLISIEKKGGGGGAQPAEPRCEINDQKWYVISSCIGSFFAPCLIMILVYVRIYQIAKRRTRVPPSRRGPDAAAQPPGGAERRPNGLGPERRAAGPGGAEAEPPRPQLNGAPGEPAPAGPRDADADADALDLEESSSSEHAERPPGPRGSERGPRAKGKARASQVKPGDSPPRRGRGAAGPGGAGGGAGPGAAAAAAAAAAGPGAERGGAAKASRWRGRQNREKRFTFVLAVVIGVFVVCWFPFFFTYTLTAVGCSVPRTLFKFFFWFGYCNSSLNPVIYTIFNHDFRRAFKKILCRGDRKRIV
Protocol: (§1) Another test system to assay for vascular postjunctional alpha2 stimulation utilizes the dog saphenous vein. This activity may be called alpha3 stimulation. The protocol for this test is as follows:
(§2) Mongrel dogs of either sex are anesthetized with sodium pentobarbital (50 mg/kg, i.p.). After the dog is anesthetized, the saphenous vein is located and cleaned of connective tissue, a 2-4 cm. segment is tied at both ends and removed. The venous segment is placed in a dish of cold Krebs solution and additional cleaning is performed to remove as much non-vascular tissue as possible. Ring segments (3-4 mm.) are then cut from the vessel.
(§3) The vessel is mounted in a superfusion chamber as known to the art for the rabbit ear artery except that the insert holding the venous ring has two parallel 0.5 mm tungsten wires separated by 2 mm. The tissue is slipped over these parallel wires and the insert attached to the main block. A third tungsten wire is then inserted through the ring and attached to a force-displacement transducer.
(§4) An initial tension of 4 gm is placed on the tissue, with tension being adjusted until a stable resting tension of 2 gm. is produced. Concentration-effect curves are determined as described in the publication referred to above for the ear artery segment.

[4] = test system: alpha3 (vascular postjunctional alpha2) receptor, dog saphenous vein; settings: for α2/α3 Selectivity: ratio of ED50 guinea pig atrium to ED50 dog saphenous vein
Protocol: as §1, §2, §3, §4

normotensive rat = assay: reduction of blood pressure in the normotensive rat model; format: in vivo; settings: for ED30: iv, read-out: EC30 for the reduction of blood pressure (hypotensive effect)
Protocol: In the normotensive rat model, the I.V. EC30 for the reduction of blood pressure was 9.8 μg/kg.

[5] = potentiation of hexabarbitol induced sleep time (sedation); format: in vivo
[6] = molecular target: alpha1 receptor (rabbit ear artery); assay: isolated perfused rabbit ear artery (postjunctional alpha1 agonism); settings: for EC50: isolated perfused rabbit ear artery, read-out: ED50 Alpha1 Rabbit Ear Artery
Source text: Since the early work on clonidine, at least two types of vascular alpha receptor sites have been identified. A postjunctional, or postsynaptic, alpha1 receptor was initially reported. […] In the alpha test protocol in the isolated perfused rabbit ear artery described by J. P. Hieble et al., Arch.

CCc1ccc(N=C2NCCN2)c(Cl)c1 [2-(2-Chloro-4-ethylphenylimino)-imidazolidine]
sedation, in words (literature) [1]: very strong sedative or sleep inducer

Clc1cccc(Cl)c1N=C1NCCN1 [clonidine, 2-(2,6-dichlorophenylimino)-2-imidazolidine]
activity relative to the compound of this invention, alpha2 (times as active) ([2]; guinea pig left atrium): 46
relative potency, alpha3 [3]: about equipotent
specificity between pre- and post-synaptic receptor subtypes, in words ([4]; in vitro, Table A): very little specificity
α2/α3 Selectivity [4]: 1
hypotensive potency relative to the compound of this invention (normotensive rat; clonidine compared with the compound of this invention): only slightly more potent
ED30 (normotensive rat; normotensive rat, I.V.): 2.3 µg/kg
marked sedation at a dose lower than the compound of this invention (times lower) ([5]; compared with the compound of this invention): ~30
ED50 ([5]; iv, read-out: ED50 in the hexabarbitol sleep time assay): 9.6 µg/kg
sedation, in words (literature) [1]: heavy sedation

Clc1cccc(Cl)c1NC1=NCCN1 [CLONIDINE HYDROCHLORIDE]
EC50 [6]: 290 nM
EC50 [2]: 17 nM
EC50 ([3]; dog saphenous vein ring, read-out: ED50 Alpha3 Dog Saphenous Vein): 16 nM
α2/α3 Selectivity [4]: 1

CC(C)(C)c1cc(Cl)c(N=C2NCCN2)c(Cl)c1 [COMPOUND I, 2-(4-tert.-butyl-2,6-dichlorophenylimino)imidazolidine]
EC50 [6]: 30 nM
agonist potency relative to clonidine, alpha1 ([6]; rabbit ear artery, compared with clonidine): eight times more potent
EC50 ([2]; isolated superfused guinea pig left atrium, read-out: ED50 Alpha2 Guinea Pig Atrium): 790 nM
EC50 [3]: 26 nM
relative potency, alpha3 [3]: about equipotent
selectivity for the postsynaptic receptor in vitro (fold) ([4]; post- versus presynaptic receptor, in vitro, Table A): 30
α2/α3 Selectivity [4]: 30
ED30 (normotensive rat; Rattus norvegicus): 9.8 µg/kg
ED50 ([5]; ip, read-out: ED50 for potentiation of hexabarbitol induced sedation): 260 µg/kg
sedative side effects, in words ([5]; summary statement): devoid of the sedative side effects
